The target of this experiment is human MCH1 receptor (Homo sapiens, UniProt Q99705). The experiment in a line: MCHR1 antagonism functional assay, measuring cytoplasmic calcium concentration ([Ca2+]i).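 Note: human MCH1 AequoScreen cells loaded with calcium-sensitive fluorescent dye, compounds preincubated one hour, then MCH given at its EC80, inhibition of ΔF/F rise relative to DMSO vehicle.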

SMILES strings stand for the structures. Where a name gives a salt, the structure may show the parent alone.

By IC50 is commonly meant the concentration needed to halve the response being measured.

Sequence of human MCH1 receptor (Q99705 whole entry): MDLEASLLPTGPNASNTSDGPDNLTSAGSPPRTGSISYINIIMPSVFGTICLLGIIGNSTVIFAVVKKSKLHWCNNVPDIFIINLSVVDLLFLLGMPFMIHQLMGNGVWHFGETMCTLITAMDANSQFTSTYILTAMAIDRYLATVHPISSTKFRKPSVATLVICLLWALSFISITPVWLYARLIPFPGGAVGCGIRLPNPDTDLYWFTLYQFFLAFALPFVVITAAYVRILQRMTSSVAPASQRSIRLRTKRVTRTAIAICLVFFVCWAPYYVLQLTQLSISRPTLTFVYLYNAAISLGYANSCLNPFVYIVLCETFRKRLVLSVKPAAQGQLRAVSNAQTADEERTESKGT
Protocol: Evaluation of MCHR1 Antagonism in Functional Assay
Cells: human MCH1 (SLC1) AequoScreen® Cell Line (Perkin Elmer ES-370-A, lot No: M4W-A2)
MCH was dissolved in MilliQ water (1 mM), aliquots were taken from the stock solution, and were kept at −20° C. One aliquot was used only once.
Assay buffer: HBSS+2 mM probenecid, pH=7.4
Measuring of Cytoplasmic Calcium Concentration ([Ca^2+]i):
On the day of measurement the culture medium was removed from the cells and a fluorescent Ca^2+-sensitive dye (FLIPR Calcium 5 kit, Molecular Devices R8186) was added to the cells at a 4× dilution compared to the recommended dilution by the manufacturer, in a volume of 100 μl/well, and cells were incubated at 37° C. for 10 min. […] The vehicle (DMSO, control treatment), or the buffer containing test compounds were added to the cells in a volume of 50 μl/well, and cells were incubated at 37° C. for further 60 min.
1 mM stock solution was made from the agonist in distilled water, this solution was distributed into aliquots, which were kept at −20° C. until use. One aliquot was used only once. Fluorescence was detected before addition of MCH for 20 s, and after addition of MCH for 40 s. MCH was applied at an EC80 concentration, the EC80-values were determined individually for every plate/experiment. For this whole MCH dose-response curves were determined on one part of the plate, 4 parameter sigmoidal curves were fitted to the experimental data by nonlinear regression, MCH EC80 values were derived from the fitted curve. The raw fluorescence data were converted into ΔF/F values (the maximum fluorescence value obtained after addition of MCH was normalized to the baseline fluorescence: ΔF/F=(Fmax−Fbaseline)/Fbaseline). […] IC50 values of the tested compounds were determined by fitting 4 parameter sigmoidal curves to inhibition % data. Data processing, including fitting curves by nonlinear regression, was done by SoftMaxPro software.

Regarding `O=c1cc(OCc2ccc(F)cn2)ccn1-c1ccc2c(c1)cc1n2CCNCC1` [Example 1, 1-{1H,2H,3H,4H,5H-[1,4]diazepino[1,7-a]indol-9-yl}-4-[(5-fluoropyridin-2-yl)methoxy]-1,2-dihydropyridin-2-one hydrochloride salt], the IC50 came to 17.6 nM.

The values are drawn from US10329296B2, “Indole derivatives” (Richter Gedeon Nyrt., priority 2015, dated 2019).
